US5795885A, “Method of inhibiting profileration of cells by administering an aminosterol compound” (priority 1995, dated 1998)

Columns and labels:
rabbit NHE1 = assay: internal pH recovery, PS120 fibroblasts transfected with rabbit NHE1 (BCECF-AM); assay type: cell-based; details: 5 μg/ml; acid-preloaded by 40 mM NH4Cl
Procedure: (§1) PS120 fibroblasts transfected with rabbit or human NHE1 were grown as described above.

human NHE1 = assay: internal pH recovery, PS120 fibroblasts transfected with human NHE1 (BCECF-AM); assay type: cell-based; details: 5 μg/ml; acid-preloaded by 40 mM NH4Cl
Procedure: as §1

[1] = system: bovine pulmonary endothelial cells; assay: growth inhibition of bovine pulmonary endothelial cells in vitro; assay type: cell-based; details: 1 μg/ml
[2] = system: human epithelial cell line MCF 10A; assay: growth inhibition of human epithelial cells in vitro; assay type: cell-based; details: 10 μg/ml
[3] = system: human foreskin fibroblasts; assay: growth inhibition of human foreskin fibroblasts in vitro; assay type: cell-based; details: 10 μg/ml
[4] = system: human microvascular cells; assay: endothelial cell cord formation in vitro; assay type: cell-based
Excerpt: Endothelial cells have the capacity in vitro to form tubular aggregates resembling capillaries in various early stages of formation. This conversion occurs under relatively specific conditions, in which essential growth factors along with an effective substratum are provided. It has been shown that both the interaction of growth factors with the endothelial cell and its attachment to a substratum activate the NHE. The activation of this exchanger is believed to be required for subsequent morphologic transformation of the endothelial cell into a multicellular tubular structure.
To assess the effect of compounds on the cord-like structures formed by human microvascular cells when plated in the presence of VEGF (Vascular Endothelial Growth Factor) and basic fibroblast growth factor on a collagen matrix, a standard cord formation assay was used.

[5] = system: chick chorioallantoic membrane; assay: chorioallantoic membrane (CAM) model, capillary growth; assay type: in vivo
Excerpt: The growing capillaries within the chorioallantoic membrane model (CAM model) have been used as a system in which to evaluate the effect of agents on their potential to inhibit new vessel growth. Neovascularization occurs most aggressively over the first week of embryonic development. Thereafter capillary growth is characterized by principally "elongation" rather than "de novo" formation.
In the standard assay, agents are applied locally to a region of the embryo over which neovascularization will occur. Agents are assessed by their ability to inhibit this process, as evaluated by visual examination about 7 days after application. […] The assay utilized is described in detail in Auerbach et al., Pharm. Ther. 51, 1991, 1-11.

B16 melanoma = B16 melanoma growth in C57B mice; assay type: in vivo, mouse
Procedure: The growth of B16 melanoma in C57B mice is dependent upon neovascularization.
Using the growth of B16 melanoma cells in C57B mice, a recognized model for the evaluation of inhibitors of angiogenesis on the growth of cancers, the effects of subcutaneous, intraperitoneal and oral administration of squalamine were evaluated.
Based on the idea that tumor growth involves both the clonal expansion of a malignant cell along with the development of a supporting vascular supply, a combination of compound 1436 with squalamine was tested to determine whether it would achieve a synergistic effect on solid tumor growth. This concept was evaluated in the B16 melanoma model.
Animals were implanted with B16 melanoma followed by treatment with compound 1436 or 1256 administered in a combined schedule or separately. […] Thus, a combination of these two compounds achieves a therapeutic benefit in tumors dependent on neovascularization that may prevent metastatic spread.

[6] = system: VX2 carcinoma implanted into the rabbit cornea; assay: tumor-induced (VX2 carcinoma) corneal neovascularization in rabbits; assay type: in vivo; details: ELVAX 40 P pellet
Excerpt: The implantation of VX2 carcinoma into the rabbit cornea results in the induction of new blood vessels within several days (Tamargo et al., Cancer Research 51, 1991, 672-675). It is believed that this carcinoma secretes growth factors that stimulate new blood-vessel growth. Thus, this model is indicative in vivo evidence of therapeutic utility in the treatment of pathological disorders of vascularization, including the metastatic spread of tumors, diabetic retinopathy, macular degeneration, and rheumatoid arthritis.
This experiment followed the published protocol--tumor was implanted adjacent to a polymer containing a concentration of the agent to be evaluated. The polymer releases the agent slowly in the immediate neighborhood of the tumor, providing sustained high local concentrations of the agent. In this experiment, squalamine introduced into a pellet of ELVAX 40 P (DuPont, Wilmington, Del.) inhibited new blood vessel formation by about 60% at days 7 and 14, and by about 25% at day 21.

[7] = system: PHA-stimulated human lymphocytes; assay: inhibition of mitogen (PHA)-stimulated growth of human T-cells; assay type: cell-based
Excerpt: Results are tabulated below.

Murine B16 melanoma = assay: growth inhibition in vitro; assay type: cell-based; details: except at very high concentrations
Excerpt: As set forth in Table 7 below, all malignant tumors evaluated in tissue culture, endothelial cells and vascular smooth muscle cells were sensitive to inhibition. Thus, compound 1436 has application in the control of growth factor dependent proliferation of many types of tissue.

[8] = system: human coronary artery smooth muscle; assay: proliferation of human coronary artery smooth muscle in vitro; assay type: cell-based; details: FIG. 15
Excerpt: Aminosterols of the invention may also have utility in inhibiting the growth factor mediated proliferation of smooth muscle within the artery. Following coronary angioplasty, reocclusion commonly occurs, secondary to reparative proliferation of the vascular smooth muscle within the wall of the surgically manipulated blood vessel. This process generally takes place over the course of 7-10 days. To evaluate whether an agent could prevent the growth factor mediated proliferation of smooth muscle within the artery, compound 1436 was evaluated in vitro for its effect on the proliferation of human coronary artery smooth muscle. Results for compound 1436 are shown in FIG. 13, and those for squalamine are shown in FIG. 14, with FIG. 15 being a composite logarithmic plot.

[9] = system: stage 59-60 Xenopus tadpoles; details: 10 μg/ml in water
[10] = system: human umbilical venous endothelial cells; assay: LPS/TNF-α-induced neutrophil adherence to human umbilical venous endothelial cells; details: 10, 1.0 or 0.1 μg; three different subjects
Procedure: In these experiments, approximately 2×10^5 human umbilical venous cells (passage 2-6) were plated per well. The cells were grown in serum-free media overnight. For induction, either TNF-α (40 ng/ml) was added to endothelial cells for 6 hours prior to adding neutrophils or LPS (100 ng/ml) was added for 4-6 hours. […] After activation of the endothelial cells, approximately 50×10^6 neutrophils were added per well. The plates were gently rocked for 30 minutes at room temperature, followed by removal of the media and washing in serum-free media three times and then photographing of each well. […] A monoclonal Ab to ICAM-1 was a positive control.

CC(C)[C@@H](CC[C@@H](C)[C@H]1CC[C@H]2[C@@H]3[C@H](O)C[C@H]4C[C@@H](NCCCNCCCCN)CC[C@]4(C)[C@H]3CC[C@]12C)OS(=O)(=O)O [Squalamine, squalamine]
inhibition of rabbit NHE1 (rabbit NHE1): no inhibitory activity
inhibition of human NHE1 (human NHE1): no inhibitory activity
growth of bovine pulmonary artery endothelial cells (BPE) [1]: inhibited the growth
growth of epithelial line [2]: no effect on the growth
growth of fibroblast line [3]: no effect on the growth
effect on endothelial cord formation ([4]; 0.01 μg/ml): -
effect on endothelial cord formation ([4]; 0.1 μg/ml): +
effect on endothelial cord formation ([4]; 1.0 μg/ml): +
effect on endothelial cord formation ([4]; 10.0 μg/ml): +
cell viability or proliferation ([4]; at these concentrations): does not appear to profoundly affect cell viability or proliferation
amount resulting in inhibition of CAM vessel neovascularization ([5]; 3-day CAM): ≤ 0.65 µg
inhibitory effect on 13-day old chick ([5]; ten times 0.65 μg): no inhibitory effect
suppression of tumor volume (B16 melanoma; intraperitoneal): a dose-dependent suppression of tumor volume was observed
suppression of tumor volume (B16 melanoma; oral): a dose-dependent suppression of tumor volume was observed
body weight and hematologic parameters (B16 melanoma; s.c., i.p. or oral treatment): no significant depression
tumor growth, single agent (B16 melanoma; squalamine 15 mg/kg/day, compound 1436 alone in a tolerable schedule): Neither administration of squalamine at 15 mg/kg/day nor compound 1436 alone in a tolerable schedule could achieve this effect
impact on tumor volume (B16 melanoma; squalamine alone 5 mg/kg/day): no significant impact on tumor volume
suppression of tumor volume (B16 melanoma; subcutaneous): a dose-dependent suppression of tumor volume was observed
inhibition of new blood vessel formation ([6]; day 7): about 60%
inhibition of new blood vessel formation ([6]; day 14): about 60%
inhibition of blast transformation (in words) ([7]; 10 μg/ml): Some effect was observed
inhibition at 1 µg/mL ([7]; Homo sapiens, Lymphocyte, 1 μg/ml, read-out: inhibition of PHA-stimulated human lymphocytes (% control)): 3%
inhibition at 5 µg/mL ([7]; Homo sapiens, Lymphocyte, 5 μg/ml, read-out: inhibition of PHA-stimulated human lymphocytes (% control)): 8%
inhibition at 10 µg/mL ([7]; Homo sapiens, Lymphocyte, 10 μg/ml, read-out: inhibition of PHA-stimulated human lymphocytes (% control)): 10%
cytostatic activity against B16 in culture (Murine B16 melanoma): minimal cytostatic activity against B16 in culture
suppression of growth (in words) [8]: suppress in vitro the growth of human coronary artery smooth muscle
time to death of tadpole [9]: ≤ 2 h
pharmacological response in tadpole ([9]; listed as Compound 1256 (Squalamine)): Vascular occlusion in fine capillaries of tail. No effect on vascular flow through hands or feet.
inhibition of neutrophil adherence [10]: no inhibition
